# Experimental data reported in US20050288360A1, “Nutraceutical compositions comprising epigallocatechin gallate and raspberry ketone” (priority 2002, published 2005).
# Marks after values point to notes of the source that are not given here.
# Tests used:
# [1] = test system: C57BL6/J mice fed a high fat, high sucrose diet; experiment: 4-week body weight study in diet-induced obese mice; assay type: in vivo; details: for Body weight compared to control mice (in words): 4 week study period; for Body weight compared to control mice (in words) / Body weight, Initial / Body weight, Week 2 / Body weight, Week 4: high fat high sucrose diet; for Body weight, Initial: baseline, male C57BL6/J mice; for Body weight, Initial / Body weight, Week 2 / Body weight, Week 4: feed-ad-mix 1400 mg/kg BW/day each, group mean; for Body weight decrease, Week 2 / Body weight decrease, Week 4: decrease in comparison to control group, 1400 mg/kg BW/day each
# Description: The efficacy of the combination of EGCG and RK as well as of both compounds alone on body weight and adiposity was tested in a 4-week study in C57BL6/J mice fed a high fat, high sucrose diet (n=8-11/group). This model of diet-induced obesity and early type 2 diabetes is widely used to determine the efficacy of anti-obesity compounds. Male C57BL6/J mice were obtained from Jackson Laboratory (Bar Harbor, Me., USA). Adult mice aged […] were used in the experiment. Mice were housed individually in plastic cages with bedding and allowed free access to a high fat, high sucrose mouse diet (Kliba # 2154, Klibamuehle, Kaiseraugst, Switzerland) and tap water. The animal rooms were controlled for temperature (24° C.), humidity (55%), and light (12-h light-dark cycle). The animals were randomized into four groups. EGCG and RK were administered as feed-ad-mix. Corn cellulose (2% of diet) served as a carrier substance for EGCG and RK as well as a placebo when used alone. Group 1 received placebo, group 2 received EGCG at a dose of 1400 mg/kg body weight (BW)/day, group 3 received RK at a dose of 1400 mg/kg BW/day, and group 4 received the combination of EGCG and RK at a doses of 1400 and 1400 mg/kg BW/day, respectively. Body weight and food intake were determined over the course of the study. All data are expressed as means for animals in each diet group. There was no difference in food intake between the groups over the study period. […] The decrease in body weight in comparison to the control group caused by each treatment was calculated (data are shown in Table 2). The expected treatment effect of the combined therapy with EGCG and RK was calculated by the sum of the effects exerted by monotherapy with EGCG or RK. The synergistic factor (SF) is defined as the quotient of the observed effect and the expected effect. If SF>1, a synergistic effect was exerted by the combined treatment.
# C57BLKS/J db/db mice = experiment: 5-week body weight study in db/db mice; assay type: in vivo; details: for Body weight, Initial: baseline, male db/db mice, standard rodent food; for Body weight, Initial / Body weight, Week 2 / Body weight, Week 4: feed-ad-mix 1400 mg/kg BW/day each, group mean; for Body weight decrease, Week 2 / Body weight decrease, Week 4: decrease in comparison to control group, 1400 mg/kg BW/day each
# Description: The efficacy of the combination of EGCG and RK as well as of both compounds alone on body weight and adiposity was tested in a 5-week study in C57BLKS/J db/db mice (n=8-9/group). This model of late type 2 diabetes with severe hyperglycemia and obesity is widely used to determine the efficacy of anti-diabetic and anti-obesity compounds. Male db/db mice were obtained from Jackson Laboratory (Bar Harbor, Me., USA). Adult mice aged 8 weeks were used in the experiment. Mice were housed individually in plastic cages with bedding and allowed free access to standard rodent food and tap water. The animal rooms were controlled for temperature (24° C.), humidity (55%), and light (12-h light-dark cycle). The animals were randomized into four groups. EGCG and RK were administered as feed-ad-mix. Corn cellulose (2% of diet) served as a carrier substance for EGCG and RK as well as a placebo when used alone. Group 1 received placebo, group 2 received EGCG at a dose of 1400 mg/kg BW/day, group 3 received RI<at a dose of 1400 mg/kg BW/day, and group 4 received the combination of EGCG and RK at a doses of 1400 and 1400 mg/kg BW/day, respectively. Body weight and food intake were determined over the course of the study. All data are expressed as means for animals in each diet group. There was no difference in food intake between the groups over the study period. The decrease in body weight in comparison to the control group caused by each treatment was calculated (data are shown in Table 4). The expected treatment effect of the combined therapy with EGCG and RK was calculated by the sum of the effects exerted by monotherapy with EGCG or RK. The synergistic factor (SF) is defined as the quotient of the observed effect and the expected effect. If SF>1, a synergistic effect was exerted by the combined treatment.
Compound,Body weight compared to control mice (in words) [1],"Body weight, Initial [1]","Body weight decrease, Week 2 [1]","Body weight decrease, Week 4 [1]","Body weight, Week 2 [1]","Body weight, Week 4 [1]","Body weight, Initial (C57BLKS/J db/db mice)","Body weight compared to untreated control (in words), after four weeks of treatment (C57BLKS/J db/db mice; db/db mice)","Body weight compared to control (in words), during the study period (C57BLKS/J db/db mice; db/db mice, whole study period)","Body weight decrease, Week 2 (C57BLKS/J db/db mice; week 2)","Body weight decrease, Week 4 (C57BLKS/J db/db mice)","Body weight, Week 2 (C57BLKS/J db/db mice; week 2, db/db mice)","Body weight, Week 4 (C57BLKS/J db/db mice; db/db mice)","Body weight compared to control mice (in words), week 2 (C57BLKS/J db/db mice; db/db mice, week 2)"
"CC(=O)CCc1ccc(O)cc1 [RK, 4-(4-hydroxyphenyl)-2-butanone]",significant decrease in body weight,11.5 g,1.6 g,1.5 g,19.0* g,22.1* g,32.5 g,neither EGCG nor RK caused a significant decrease in body weight,did not significantly decrease body weight,0.3 g,0.4 g,38.4 g,38.0 g,
"O=C(O[C@@H]1Cc2c(O)cc(O)cc2O[C@@H]1c1cc(O)c(O)c(O)c1)c1cc(O)c(O)c(O)c1 [EGCG, epigallocatechin gallate]",significant decrease in body weight,11.4 g,2.7 g,2.2 g,17.7* g,21.4* g,32.2 g,neither EGCG nor RK caused a significant decrease in body weight,,3.0 g,0.8 g,35.7* g,37.7 g,significant decrease in body weight
